# Results taken from DBAASP.
# Columns and labels:
# Assay in all cases: ≥ marks a high value that may be exact or a test limit, other limits are often not marked, values filed in µg/mL are converted to µM
# [1] = tested on: Acinetobacter baumannii CCARM 12005
# [2] = tested on: Acinetobacter baumannii CCARM 12035
# [3] = tested on: Acinetobacter baumannii CCARM 12036
# [4] = tested on: Acinetobacter baumannii CCARM 12037
# [5] = tested on: Bacillus subtilis KCTC 1021
# [6] = tested on: Bacillus subtilis KCTC 1022
# [7] = tested on: Bacillus subtilis KCTC 3068
# [8] = tested on: Escherichia coli CCARM 1229
# [9] = tested on: Escherichia coli CCARM 1238
# [10] = tested on: Escherichia coli KCTC 1682
# [11] = tested on: Escherichia coli KCTC 2571
# [12] = tested on: Escherichia coli KCTC 2593
# [13] = tested on: Pseudomonas aeruginosa CCARM 2002
# [14] = tested on: Pseudomonas aeruginosa CCARM 2003
# [15] = tested on: Pseudomonas aeruginosa CCARM 2095
# [16] = tested on: Pseudomonas aeruginosa CCARM 2163
# [17] = tested on: Pseudomonas aeruginosa KCTC 1637
# [18] = tested on: Pseudomonas aeruginosa KCTC 2004
# [19] = tested on: Pseudomonas aeruginosa KCTC 2513
# [20] = tested on: Salmonella typhimurium CCARM 8003
# [21] = tested on: Salmonella typhimurium CCARM 8007
# [22] = tested on: Salmonella typhimurium CCARM 8009
# [23] = tested on: Salmonella typhimurium KCTC 1926
# [24] = tested on: Staphylococcus aureus CCARM 3089
# [25] = tested on: Staphylococcus aureus CCARM 3090
# [26] = tested on: Staphylococcus aureus CCARM 3108
# [27] = tested on: Staphylococcus aureus CCARM 3114
# [28] = tested on: Staphylococcus aureus CCARM 3126
# [29] = tested on: Staphylococcus aureus KCTC 1621
# [30] = tested on: Staphylococcus aureus KCTC 1916
# [31] = tested on: Staphylococcus aureus KCTC 3881
# [32] = tested on: Staphylococcus epidermidis KCTC 1917
# [33] = tested on: Bacillus subtilis ATCC 62037
# [34] = tested on: Candida albicans ATCC 10231
# [35] = tested on: Cryptococcus neoformans ATCC 34881
# [36] = tested on: Escherichia coli ATCC 27325
# [37] = tested on: Pseudomonas putida ATCC 17426
# [38] = tested on: Saccharomyces cerevisiae ATCC 44774
# [39] = tested on: Salmonella enterica subsp. enterica serovar Enteritidis ATCC 13076
# [40] = tested on: Staphylococcus aureus ATCC 15752
# [41] = tested on: Streptococcus mutans ATCC 25175
structure (smiles),measurement,setting,value
CC[C@H](C)[C@H](NC(=O)CNC(=O)[C@H](CCCN=C(N)N)NC(=O)[C@H](Cc1ccccc1)NC(=O)[C@@H](NC(=O)[C@H](Cc1cnc[nH]1)NC(=O)[C@H](Cc1cnc[nH]1)NC(=O)[C@H](Cc1ccccc1)NC(=O)[C@@H](N)CCCCN)[C@@H](C)CC)C(=O)N[C@@H](CCCCN)C(=O)N[C@@H](Cc1cnc[nH]1)C(=O)N[C@H](C(=O)NCC(=O)N[C@@H](CCCCN)C(=O)N[C@H](C(=O)N[C@H](C(=O)N[C@@H](Cc1cnc[nH]1)C(=O)N[C@@H](CCCN=C(N)N)C(=O)N[C@@H](CC(C)C)C(=O)N[C@H](C(=O)N[C@H](C(=O)NCC(=O)O)[C@@H](C)O)C(C)C)[C@@H](C)CC)[C@@H](C)O)C(C)C [KFHHIFRGIKHVGKTIHRLVTG],MIC,[1],2 µM
same,MIC,[2],2 µM
same,MIC,[3],2 µM
same,MIC,[4],2 µM
same,MIC,[5],4 µM
same,MIC,[6],2 µM
same,MIC,[7],1 µM
same,MIC,[8],4 µM
same,MIC,[9],4 µM
same,MIC,[10],1 µM
same,MIC,[11],2 µM
same,MIC,[12],2 µM
same,MIC,[13],2 µM
same,MIC,[14],2 µM
same,MIC,[15],2 µM
same,MIC,[16],2 µM
same,MIC,[17],1 µM
same,MIC,[18],2 µM
same,MIC,[19],2 µM
same,MIC,[20],8 µM
same,MIC,[21],8 µM
same,MIC,[22],8 µM
same,MIC,[23],1 µM
same,MIC,[24],4 µM
same,MIC,[25],4 µM
same,MIC,[26],4 µM
same,MIC,[27],8 µM
same,MIC,[28],4 µM
same,MIC,[29],2 µM
same,MIC,[30],2 µM
same,MIC,[31],2 µM
same,MIC,[32],1 µM
CC(C)[C@H](NC(=O)[C@H](CCCCN)NC(=O)CNC(=O)CNC(=O)[C@H](CCC(N)=O)NC(=O)[C@H](CCCCN)NC(=O)CNC(=O)[C@H](CCCN=C(N)N)NC(=O)CNC(=O)[C@@H](N)CCCCN)C(=O)N[C@@H](CCCN=C(N)N)C(=O)N[C@@H](C)C(=O)N[C@@H](CCCCN)C(=O)N[C@@H](C)C(=O)N[C@@H](CCCCN)C(=O)O [KGRGKQGGKVRAKAK],MIC,[33],0.637 µM
same,MIC,[34],0.637 µM
same,MIC,[35],0.637 µM
same,MIC,[36],0.637 µM
same,MIC,[37],0.637 µM
same,MIC,[38],0.637 µM
same,MIC,[39],2.55 µM
same,MIC,[40],2.55 µM
same,MIC,[41],1.27 µM
